Laboratory results published in patent US9707234B2, “Spirocyclic hetercycle compounds useful as HIV integrase inhibitors” (MERCK SHARP & DOHME CORP., priority 2013, dated 2017).
Where two headings read alike, the source gives them in different places.

Tested on: HIV-1 (H9IIIB or NL4-3 virus) replication in MT4-GFP cells
Test: microbe, parasite or virus in culture
Assay type: cell-based
Conditions: inhibition of reproductive ratio R0, 48-72 h post-infection
[1] = MT4-GFP cells infected with HIV-1, 100% normal human serum, read-out: ViKinG IP (nM) with 100% NHS
[2] = MT4-GFP cells infected with HIV-1, serum free conditions (0% NHS), read-out: ViKinG IP (nM) with 0% NHS
[3] = Human immunodeficiency virus 1, NL43, MT4-GFP cells infected with HIV-1, serum free conditions (0% NHS), read-out: ViKinG IP (nM) with 0% NHS
[4] = Human immunodeficiency virus 1, NL43, MT4-GFP cells infected with HIV-1, 100% normal human serum, read-out: ViKinG IP (nM) with 100% NHS
[5] = Human immunodeficiency virus 1, NL43, MT4-GFP cells infected with HIV-1, 10% normal human serum, read-out: ViKinG IP (nM) with 10% NHS

Compound | IC50 [1] [nM] | IC50 [2] [nM] | IC50 [3] [nM] | IC50 [4] [nM] | IC50 [5] [nM]
CC1OCCC12N(C)C(=O)c1c(O)c(=O)c(C(=O)NCc3cccc(Cl)c3F)cn1N2C (single isomer, unassigned) [Compound 138] | 134 | 0.6 | – | – | –
CCOC(=O)N1CCC2(C1)N(CC)C(=O)c1c(O)c(=O)c(C(=O)NCc3ccc(F)cc3F)cn1N2C (single isomer, unassigned) [Compound 139] | 247 | – | 1.5 | – | –
CCOC(=O)N1CCC2(C1)N(CC)C(=O)c1c(O)c(=O)c(C(=O)NCc3ccc(F)cc3F)cn1N2C (single isomer, unassigned) [Compound 140] | 48 | 1.7 | – | – | –
CCN1n2cc(C(=O)NCc3ccc(F)cc3F)c(=O)c(O)c2C(=O)N(C)C12CCOC2 (single isomer, unassigned) [Compound 149] | 144 | – | 0.7 | – | –
CCN1n2cc(C(=O)NCc3ccc(F)cc3F)c(=O)c(O)c2C(=O)N(C)C12CCOC2 (single isomer, unassigned) [Compound 150] | 71 | 0.6 | – | – | –
CN1C(=O)c2c(O)c(=O)c(C(=O)NCc3ccc(F)cc3F)cn2N(CC2CC2)C12CCOC2 (single isomer, unassigned) [Compound 151] | – | – | 0.7 | 240 | –
CN1C(=O)c2c(O)c(=O)c(C(=O)NCc3ccc(F)cc3F)cn2N(CC2CC2)C12CCOC2 (single isomer, unassigned) [Compound 152] | 174 | 0.7 | – | – | –
COCN1n2cc(C(=O)NCc3ccc(F)cc3F)c(=O)c(O)c2C(=O)N(C)C12CCOC2 (single isomer, unassigned) [Compound 153] | 275 | – | 1.3 | – | –
COCN1n2cc(C(=O)NCc3ccc(F)cc3F)c(=O)c(O)c2C(=O)N(C)C12CCOC2 (single isomer, unassigned) [Compound 154] | 37 | 0.7 | – | – | –
COCCN1n2cc(C(=O)NCc3ccc(F)cc3F)c(=O)c(O)c2C(=O)N(C)C12CCOC2 (single isomer, unassigned) [Compound 155] | 37 | – | – | – | –
COCCN1n2cc(C(=O)NCc3ccc(F)cc3F)c(=O)c(O)c2C(=O)N(C)C12CCOC2 (single isomer, unassigned) [Compound 156] | 106 | 1.2 | – | – | –
COCCCN1n2cc(C(=O)NCc3ccc(F)cc3F)c(=O)c(O)c2C(=O)N(C)C12CCOC2 (single isomer, unassigned) [Compound 157] | – | 2.5 | – | 111 | –
COCCCN1n2cc(C(=O)NCc3ccc(F)cc3F)c(=O)c(O)c2C(=O)N(C)C12CCOC2 (single isomer, unassigned) [Compound 158] | 168 | 1 | – | – | –
CCOP(=O)(CCN1n2cc(C(=O)NCc3ccc(F)cc3F)c(=O)c(O)c2C(=O)N(C)C12CCOC2)OCC (single isomer, unassigned) [Compound 159] | – | – | – | 71 | –
CCOP(=O)(CCN1n2cc(C(=O)NCc3ccc(F)cc3F)c(=O)c(O)c2C(=O)N(C)C12CCOC2)OCC (single isomer, unassigned) [Compound 160] | 46 | – | – | – | –
CN1C(=O)c2c(O)c(=O)c(C(=O)NCc3ccc(F)cc3F)cn2N(Cc2ccccc2)C12CCOC2 (single isomer, unassigned) [Compound 162] | 72 | – | – | – | –
CN1C(=O)c2c(O)c(=O)c(C(=O)NCc3ccc(F)cc3F)cn2N(Cc2ccccc2)C12CCOC2 (single isomer, unassigned) [Compound 163] | 35 | – | – | – | –
CN1C(=O)c2c(O)c(=O)c(C(=O)NCc3ccc(F)cc3F)cn2N(CCCC(F)(F)F)C12CCOC2 (single isomer, unassigned) [Compound 164] | – | – | – | 178 | –
CN1C(=O)c2c(O)c(=O)c(C(=O)NCc3ccc(F)cc3F)cn2N(CCCC(F)(F)F)C12CCOC2 (single isomer, unassigned) [Compound 165] | 146 | – | – | – | –
CN1C(=O)c2c(O)c(=O)c(C(=O)NCc3ccc(F)cc3F)cn2N(C)C12CCNC2 (single isomer, unassigned) [Compound 169] | 512 | – | 4.4 | – | –
CN1C(=O)c2c(O)c(=O)c(C(=O)NCc3ccc(F)cc3F)cn2N(C)C12CCNC2 (single isomer, unassigned) [Compound 170] | 66 | 5 | – | – | –
CCN1C(=O)c2c(O)c(=O)c(C(=O)NCc3ccc(F)cc3F)cn2N(C)C12CCNC2 (single isomer, unassigned) [Compound 171] | – | – | 1.8 | 88 | –
CCN1C(=O)c2c(O)c(=O)c(C(=O)NCc3ccc(F)cc3F)cn2N(C)C12CCNC2 (single isomer, unassigned) [Compound 172] | 61 | 1.6 | – | – | –
CCOC(=O)N1CCC2(CC1)N(CC)C(=O)c1c(O)c(=O)c(-c3nnc(Cc4ccc(F)cc4)s3)cn1N2C [Compound 5] | – | – | 16.4 | 250 | 22
CCOC(=O)N1CCC2(CC1)N(CC)C(=O)c1c(O)c(=O)c(-c3nnc(Cc4ccc(F)cc4F)s3)cn1N2C [Compound 6] | – | – | – | 159 | 13

Compound | IC50 [1] [nM] | IC50 [2] [nM] | IC50 [3] [nM] | IC50 [4] [nM] | IC50 [5] [nM]
CCCN1C(=O)c2c(O)c(=O)c(-c3nnc(Cc4ccc(F)cc4F)s3)cn2N(C)C12CCN(C(=O)OCC)CC2 [Compound 7] | – | – | 29.9 | 148 | 58
CCN1C(=O)c2c(O)c(=O)c(-c3nnc(Cc4ccc(F)cc4F)s3)cn2N(C)C12CCN(C(=O)OC)CC2 [Compound 8] | – | – | 5.5 | 131 | –
CCN1C(=O)c2c(O)c(=O)c(-c3nnc(Cc4ccc(F)cc4F)s3)cn2N(C)C12CCN(C(=O)OC(C)C)CC2 [Compound 9] | – | – | 89.7 | 344 | –
CCN1C(=O)c2c(O)c(=O)c(-c3nnc(Cc4ccc(F)cc4F)s3)cn2N(C)C12CCN(C(C)=O)CC2 [Compound 10] | – | – | – | 1500 | 57
CCN1C(=O)c2c(O)c(=O)c(-c3nnc(Cc4ccc(F)cc4)s3)cn2N(C)C12CCN(C(=O)OCc1ccccc1)CC2 [Compound 11] | – | – | – | 359 | 31
CCN1C(=O)c2c(O)c(=O)c(-c3nnc(Cc4ccc(F)cc4F)s3)cn2N(C)C12CCN(S(C)(=O)=O)CC2 [Compound 12] | – | – | – | 126 | 24
CCN1C(=O)c2c(O)c(=O)c(-c3nnc(Cc4ccc(F)cc4F)s3)cn2N(C)C12CCN(S(=O)(=O)N(C)C)CC2 [Compound 13] | – | – | 8.6 | 106 | 14
CCN1C(=O)c2c(O)c(=O)c(-c3nnc(Cc4ccc(F)cc4F)s3)cn2N(C)C12CCN1C(=O)CCC1C2 (centres unmarked) [Compound 14] | – | – | – | – | 41
CCN1C(=O)c2c(O)c(=O)c(-c3nnc(Cc4ccc(F)cc4F)s3)cn2N(C)C12CCSCC2 [Compound 15] | – | – | 8 | 3140 | 178
CCN1C(=O)c2c(O)c(=O)c(-c3nnc(Cc4ccc(F)cc4F)s3)cn2N(C)C12CCS(=O)(=O)CC2 [Compound 16] | – | – | 17.3 | – | 47
CCN1C(=O)c2c(O)c(=O)c(-c3nnc(Cc4ccc(F)cc4F)s3)cn2N(C)C12CCN(c1ncccn1)CC2 [Compound 17] | – | – | 29.3 | 1520 | –
CCOC(=O)N1CCC2(CC1)N(C)C(=O)c1c(O)c(=O)c(-c3nnc(Cc4ccc(F)cc4)s3)cn1N2C [Compound 18] | – | – | – | 254 | 13
CCOC(=O)N1CCC2(CC1)N(C)C(=O)c1c(O)c(=O)c(-c3nnc(Cc4ccc(F)cc4F)s3)cn1N2C [Compound 19] | – | – | – | 133 | 9
C[C@@H]1CC2(CCN1C(=O)OCc1ccccc1)N(C)C(=O)c1c(O)c(=O)c(-c3nnc(Cc4ccc(F)cc4F)s3)cn1N2C (some centres unmarked) [Compound 20] | – | – | – | – | 234
C[C@H]1CC2(CCN1C(=O)OCc1ccccc1)N(C)C(=O)c1c(O)c(=O)c(-c3nnc(Cc4ccc(F)cc4F)s3)cn1N2C (some centres unmarked) [Compound 21] | – | – | – | – | 141
CN1C(=O)c2c(O)c(=O)c(-c3nnc(Cc4ccc(F)cc4F)s3)cn2N(C)C12CCOCC2 [Compound 22] | – | – | – | 731 | 47
CC(=O)N1CCC2(CC1)N(C)C(=O)c1c(O)c(=O)c(-c3nnc(Cc4ccc(F)cc4F)s3)cn1N2C [Compound 23] | – | – | – | – | 100
CN1C(=O)c2c(O)c(=O)c(-c3nnc(Cc4ccc(F)cc4F)s3)cn2N(C)C12CCN(S(=O)(=O)N(C)C)CC2 [Compound 24] | – | – | 11.9 | 86 | 6
CN1C(=O)c2c(O)c(=O)c(-c3nnc(Cc4ccc(F)cc4F)s3)cn2N(C)C12CCSCC2 [Compound 25] | – | – | 5.3 | 257 | 17
CN1C(=O)c2c(O)c(=O)c(-c3nnc(Cc4ccc(F)cc4F)s3)cn2N(C)C12CCN(S(C)(=O)=O)CC2 [Compound 26] | – | – | 11.5 | 161 | 26
CN1C(=O)c2c(O)c(=O)c(-c3nnc(Cc4ccc(F)cc4F)s3)cn2N(C)C12CCS(=O)(=O)CC2 [Compound 27] | – | – | 21.2 | 712 | 72
CN1C(=O)c2c(O)c(=O)c(-c3nnc(Cc4ccc(F)cc4F)s3)cn2N(C)C12CCNC(=O)CC2 (centres unmarked) [Compound 28] | – | – | 53.5 | 679 | 122
CN1C(=O)c2c(O)c(=O)c(-c3nnc(Cc4ccc(F)cc4F)s3)cn2N(C)C12CCN(C(N)=O)CC2 [Compound 29] | – | – | 89.1 | 2080 | –
CN1C(=O)c2c(O)c(=O)c(-c3nnc(Cc4ccc(F)cc4F)s3)cn2N(C)C12CCN(c1ccccn1)CC2 [Compound 30] | – | – | 38.5 | 280 | –
CCN1C(=O)c2c(O)c(=O)c(-c3nnc(Cc4ccc(F)cc4F)s3)cn2N(C)C12CCNCC2 [Compound 32] | – | – | 8 | 74 | –
